In ChEMBL document CHEMBL1144671, “Non-ATP competitive glycogen synthase kinase 3beta (GSK-3beta) inhibitors: study of structural requirements for thiadiazolidinone derivatives” (Bioorg Med Chem, 2008):

Test: Inhibition of rabbit recombinant GSK3-beta
Design: species or system Oryctolagus cuniculus

IC50 [µM] | Structure (SMILES)
> 100 | CC(=O)Nc1nsc(NC(C)=O)n1
> 100 | Cc1ccc(-c2nsc(=O)[nH]2)cc1
> 100 | CCOC(=O)Cn1c(-c2ccc(C)cc2)nsc1=O
> 100 | O=C(/N=c1\s[nH]c(=O)n1Cc1ccccc1)c1ccccc1
> 100 | O=c1nc(NCc2ccccc2)sn1Cc1ccccc1
> 100 | CCOC(=O)Cn1c(=O)n(Cc2ccccc2)s/c1=N\C(=O)c1ccccc1
> 100 | CCOC(=O)c1nsc(-c2ccccc2)n1
> 100 | Cn1sc(NC(=O)c2ccccc2)nc1=O
> 100 | O=C(Nc1nc(=O)[nH]s1)c1ccccc1
> 100 | Cn1s/c(=N\C(=O)c2ccccc2)n(CC(=O)O)c1=O
> 100 | Cn1s/c(=N\Cc2ccccc2)n(Cc2ccccc2)c1=O
> 100 | CCOC(=O)Cn1c(=O)n(C)s/c1=N\Cc1ccccc1
> 100 | CCOC(=O)c1nc(-c2ccc(Cl)cc2)ns1
> 100 | Cn1s/c(=N\C(=O)c2ccccc2)n(C)c1=O
25 | Nc1nc(=O)[nH]s1
40 | Cn1sc(N)nc1=O
15 | Cn1sc(NCCc2ccccc2)nc1=O
20 | CCOC(=O)CNc1nc(=O)n(C)s1
> 100 | N#CCn1s/c(=N\C(=O)c2ccccc2)n(CC#N)c1=O
15 | Cn1sc(Nc2ccc(Br)cc2)nc1=O
20 | Cn1sc(NCc2ccccc2)nc1=O
> 100 | ClCc1nc(-c2ccccc2)ns1
> 100 | c1ccc(-c2nsc(-c3ccccc3)n2)cc1

IC50 [µM] | Structure (SMILES)
> 100 | CCNc1nsc(NCC)n1
> 100 | Cc1ccc(-c2nsc(S(=O)(=O)c3ccc(C)cc3)n2)cc1
> 100 | CCOC(=O)c1nc(-c2ccc(OC)cc2)ns1
> 100 | CCOC(=O)c1nc(-c2ccccc2)ns1
> 100 | CCOC(=O)c1nc(-c2cc(C(C)(C)C)c(O)c(C(C)(C)C)c2)ns1
> 100 | Cn1s/c(=N\c2ccc(Br)cc2)n(C)c1=O
> 100 | CCOC(=O)c1nc(-c2ccc([N+](=O)[O-])cc2)ns1
> 100 | CCOC(=O)Cn1c(=O)n(C)s/c1=N\C(=O)c1ccccc1
6.5 | O=c1nc(NCc2ccccc2)s[nH]1
> 100 | N#CCn1c(=O)[nH]s/c1=N\C(=O)c1ccccc1
> 100 | CCOC(=O)Nc1nc(=O)n(C)s1
> 100 | Cn1sc(NCCO)nc1=O
> 100 | Cc1ccccc1-c1nsc(=O)[nH]1
18 | CNc1nc(=O)n(C)s1
> 100 | O=C(Nc1nc(=O)n(Cc2ccccc2)s1)c1ccccc1
> 100 | c1cc(Nc2nsc(Nc3ccncc3)n2)ccn1
12.5 | Cn1sc(Nc2ccccc2)nc1=O
> 100 | O=C(O)Cn1c(=O)n(Cc2ccccc2)s/c1=N\C(=O)c1ccccc1
> 100 | O=C(/N=c1\sn(Cc2ccccc2)c(=O)n1Cc1ccccc1)c1ccccc1
> 100 | Cn1s/c(=N\C(=O)c2ccccc2)n(CC#N)c1=O
> 100 | Cn1s/c(=N\C(=O)c2ccccc2)n(Cc2ccccc2)c1=O
> 100 | c1ccc(Nc2nsc(Nc3ccccc3)n2)cc1
75 | Cn1sc(NCC(=O)O)nc1=O
